# Experimental data published in patent publication US20220380319A1 (Bial - R&D Investments, S.A., priority 2019, published 2022).
# Legend:
# [1] = target: T1, acid ceramidase (Homo sapiens, UniProt Q13510); assay: Acid ceramidase inhibition, biochemical fluorescent assay with cell lysates overexpressing acid ceramidase, substrate Rbm14-12; conditions: substrate Rbm14-12 6.3 μM, pH 4.5, 1 hr preincubation at RT
# T1 construct: Cell lysates overexpressing acid ceramidase were used as the enzyme source; expressed in transfected cells
# T1 sequence (Q13510 22-395): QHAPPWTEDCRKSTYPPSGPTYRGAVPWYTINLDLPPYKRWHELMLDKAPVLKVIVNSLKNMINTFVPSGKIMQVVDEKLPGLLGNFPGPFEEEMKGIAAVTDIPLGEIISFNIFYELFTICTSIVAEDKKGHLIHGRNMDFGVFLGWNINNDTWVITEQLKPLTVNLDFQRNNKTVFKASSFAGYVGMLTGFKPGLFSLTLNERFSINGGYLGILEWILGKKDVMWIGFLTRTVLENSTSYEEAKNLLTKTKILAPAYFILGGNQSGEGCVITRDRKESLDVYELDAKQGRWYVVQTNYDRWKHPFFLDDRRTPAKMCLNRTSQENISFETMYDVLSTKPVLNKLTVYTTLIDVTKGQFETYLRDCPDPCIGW
# Method in brief: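 IC50 derived by four-parameter fitting of fluorescence (ex360 nm, em446 nm) produced after 1 hr in methanol/NaIO4/glycine stop buffer, pH 10.6. Reaction: 6.3 μM Rbm14-12, 1 hr RT, following 1 hr RT compound preincubation with 10 μg overexpressing-cell lysate protein in pH 4.5 NaAC/NaCl buffer.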
# [2] = Compound solubility in water
SMILES,IC50 [1] [nM],solubility [2] [µg/mL]
"COc1nc2cc(-c3cccnc3)cnc2n1C(=O)NCCCCc1ccccc1 [Example 122, 2-Methoxy-N-(4-phenylbutyl)-6-(pyridin-3-yl)-3H-imidazo[4,5-b]pyridine-3-carboxamide]",< 200,0.04
"CC(C)CNC(=O)n1c(=O)n(C)c2ccc(-c3cccnc3)cc21 [Example 123, N-iso-Butyl-3-methyl-2-oxo-6-(pyridin-3-yl)-2,3-dihydro-1H-benzo[d]imidazole-1-carboxamide]",> 1000,0.6
"O=C(NCCc1ccccc1)n1c(=O)[nH]c2cccnc21 [Example 124, 2-Oxo-N-phenethyl-1H-imidazo[4,5-b]pyridine-3(2H)-carboxamide]",> 1000,4
CSc1nc2cc(-c3cccnc3)cnc2n1C(=O)NCC(C)C [Example 125],200 to 1000,6
"CC(C)CNC(=O)n1cnc2cc(-c3cncs3)ccc21 [Example 126a, N-iso-Butyl-5-(thiazol-5-yl)-1H-benzo[d]imidazole-1-carboxamide]",< 200,6
"CC(C)CNC(=O)n1cnc2ccc(-c3cncs3)cc21 [Example 126b, N-iso-butyl-6-(thiazol-5-yl)-1H-benzo[d]imidazole-1-carboxamide]",200 to 1000,14
"CCn1c(=O)n(C(=O)NCCc2ccccc2)c2ncccc21 [Example 127, 1-Ethyl-2-oxo-N-phenethyl-1H-imidazo[4,5-b]pyridine-3(2H)-carboxamide]",200 to 1000,23
"[2H]c1nc2ccccc2n1C(=O)NCCc1ccccc1 [Example 128, N-Phenethyl-1H-benzo[d]imidazole-2-d-1-carboxamide]",< 200,15
"N#Cc1cccc2c1ncn2C(=O)NCCCCc1ccccc1 [Example 130, 4-Cyano-N-(4-phenylbutyl)-1H-benzo[d]imidazole-1-carboxamide]",< 200,1.3
"N#Cc1cccc2c1ncn2C(=O)NCCCOc1ccccc1 [Example 131, 4-Cyano-N-(3-phenoxypropyl)-1H-benzo[d]imidazole-1-carboxamide]",< 200,5
"COc1cc(N2CCCCC2)c2ncn(C(=O)NCCCCC3CC3)c2c1 [Example 132, N-(4-Cyclopropylbutyl)-6-methoxy-4-(piperidin-1-yl)-1H-benzo[d]imidazole-1-carboxamide]",< 200,0.2
"COc1nc2ccc(N3CCOCC3)cc2n1C(=O)NCCCCc1ccccc1 [Example 133a, 2-Methoxy-6-morpholino-N-(4-phenylbutyl)-1H-benzo[d]imidazole-1-carboxamide]",< 200,1
"COc1nc2cc(N3CCOCC3)ccc2n1C(=O)NCCCCc1ccccc1 [Example 133b, 2-methoxy-5-morpholino-N-(4-phenylbutyl)-1H-benzo[d]imidazole-1-carboxamide]",< 200,2
"COc1nc2ccc(N3CCOCC3)cc2n1C(=O)NCCCc1ccccc1 [Example 134a, 2-Methoxy-6-morpholino-N-(3-phenylpropyl)-1H-benzo[d]imidazole-1-carboxamide]",< 200,17
"COc1nc2cc(N3CCOCC3)ccc2n1C(=O)NCCCc1ccccc1 [Example 134b, 2-methoxy-5-morpholino-N-(3-phenylpropyl)-1H-benzo[d]imidazole-1-carboxamide]",< 200,16
"COc1nc2cccnc2n1C(=O)NCCCCn1ccc(C(C)(C)C)n1 [Example 135a, N-(4-(3-(tert-Butyl)-1H-pyrazol-1-yl)butyl)-2-methoxy-3H-imidazo[4,5-b]pyridine-3-carboxamide]",< 200,15
"COc1cc(C2CCN(C)CC2)c2ncn(C(=O)NCCCCc3ccccc3)c2c1 [Example 136, 6-Methoxy-4-(1-methylpiperidin-4-yl)-N-(4-phenylbutyl)-1H-benzo[d]imidazole-1-carboxamide]",< 200,21
"O=C(NCCCCc1ccccc1)n1cnc2c(N3CCOCC3)cccc21 [Example 137, 4-Morpholino-N-(4-phenylbutyl)-1H-benzo[d]imidazole-1-carboxamide]",< 200,0.6
"COc1nc2c(C#N)cccc2n1C(=O)NCCCCc1ccccc1 [Example 138, 4-Cyano-2-methoxy-N-(4-phenylbutyl)-1H-benzo[d]imidazole-1-carboxamide]",< 200,0.3

SMILES,IC50 [1] [nM],solubility [2] [µg/mL]
"COc1nc2c(C#N)cccc2n1C(=O)NCC1CCC(F)(F)CC1 [Example 139, 4-Cyano-N-((4,4-difluorocyclohexyl)methyl)-2-methoxy-1H-benzo[d]imidazole-1-carboxamide]",< 200,9
"COc1nc2c(C#N)cccc2n1C(=O)NCC#CC(C)C [Example 140, 4-Cyano-2-methoxy-N-(4-methylpent-2-ynyl)-1H-benzo[d]imidazole-1-carboxamide]",< 200,10
"O=C(NCCCC1CC1)n1cnc2c(N3CCOCC3)cccc21 [Example 141, N-(3-Cyclopropylpropyl)-4-morpholino-1H-benzo[d]imidazole-1-carboxamide]",< 200,15
"O=C(NCCCc1ccccc1)n1cnc2c(N3CCOCC3)cccc21 [Example 142, 4-Morpholino-N-(3-phenylpropyl)-1H-benzo[d]imidazole-1-carboxamide]",< 200,1.4
"CC(C)CCNC(=O)n1cnc2c(N3CCC(F)(F)CC3)cccc21 [Example 143, 4-(4,4-Difluoropiperidin-1-yl)-N-isopentyl-1H-benzo[d]imidazole-1-carboxamide]",200 to 1000,2
"COc1nc2c(N3CCC(F)(F)CC3)cccc2n1C(=O)NCCC(C)C [Example 144, 4-(4,4-Difluoropiperidin-1-yl)-N-isopentyl-2-methoxy-1H-benzo[d]imidazole-1-carboxamide]",> 1000,1.2
"COc1nc2c(N3CCN(C)CC3)cccc2n1C(=O)NCCC(C)C [Example 145, N-iso-Pentyl-2-methoxy-4-(4-methylpiperazin-1-yl)-1H-benzo[d]imidazole-1-carboxamide]",> 1000,46
"COc1nc2c(N3CCOCC3)cccc2n1C(=O)NCCC(C)C [Example 146, N-iso-Pentyl-2-methoxy-4-morpholino-1H-benzo[d]imidazole-1-carboxamide]",> 1000,17
"CC(C)CCNC(=O)n1cnc2c(N3CCN(C4CC4)CC3)cccc21 [Example 147, 4-(4-Cyclopropylpiperazin-1-yl)-N-iso-pentyl-1H-benzo[d]imidazole-1-carboxamide]",200 to 1000,14
"O=C(NC1CCCCC1)n1cnc2c(N3CCN(C4CC4)CC3)cccc21 [Example 148, N-Cyclohexyl-4-(4-cyclopropylpiperazin-1-yl)-1H-benzo[d]imidazole-1-carboxamide]",> 1000,3
"O=C(NC1CCCCC1)n1cnc2c(N3CCOCC3)cccc21 [Example 149, N-Cyclohexyl-4-morpholino-1H-benzo[d]imidazole-1-carboxamide]",> 1000,15
"O=C(NCCCc1ccccc1)n1cnc2c(N3CCN(C4CC4)CC3)cccc21 [Example 150, 4-(4-Cyclopropylpiperazin-1-yl)-N-(3-phenylpropyl)-1H-benzo[d]imidazole-1-carboxamide]",< 200,1.5
"CC(C)CCNC(=O)n1cnc2c(N3CCCCC3)cccc21 [Example 151, N-iso-Pentyl-4-(piperidin-1-yl)-1H-benzo[d]imidazole-1-carboxamide]",200 to 1000,2
"CC(C)CCNC(=O)n1cnc2c(N3CCN(CC4CC4)CC3)cccc21 [Example 152, 4-(4-(Cyclopropylmethyl)piperazin-1-yl)-N-iso-pentyl-1H-benzo[d]imidazole-1-carboxamide]",200 to 1000,20
"CC(C)CCNC(=O)n1cnc2c(N3CCN(CC(F)(F)F)CC3)cccc21 [Example 153, N-iso-Pentyl-4-(4-(2,2,2-trifluoroethyl)piperazin-1-yl)-1H-benzo[d]imidazole-1-carboxamide]",200 to 1000,10
"CC(C)CCNC(=O)n1cnc2c(N3CCN(C4COC4)CC3)cccc21 [Example 154, N-iso-Pentyl-4-(4-(oxetan-3-yl)piperazin-1-yl)-1H-benzo[d]imidazole-1-carboxamide]",200 to 1000,30
"CC(C)CCNC(=O)n1cnc2c(N3CCN(C4CCOCC4)CC3)cccc21 [Example 155, N-iso-Pentyl-4-(4-(tetrahydro-2H-pyran-4-yl)-piperazin-1-yl)-1H-benzo[d]imidazole-1-carboxamide]",200 to 1000,30
"CC(C)CCNC(=O)n1cnc2c(N3CCN(c4cccc5cncn45)CC3)cccc21 [Example 156, 4-(4-(Imidazo[1,5-a]pyridin-5-yl)piperazin-1-yl)-N-iso-pentyl-1H-benzo[d]imidazole-1-carboxamide]",200 to 1000,0.2
